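Following 48 hours of exposure in 96-well plates, responses at five concentrations were used to interpolate endpoints linearly. At the GI50, growth is halved. At the TGI there is no net growth.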
Experiments:
Experiment in all cases: DTP human tumour cell line panel, 48 h
[1] = system: NCI-H23 lung
[2] = system: ACHN renal
[3] = system: SN12C renal
[4] = system: SF-295 CNS
[5] = system: OVCAR-4 ovarian
[6] = system: CAKI-1 renal
[7] = system: PC-3 prostate
[8] = system: MCF7 breast
[9] = system: EKVX NSCLC
[10] = system: DU-145 prostate

COc1ccc(-c2nc3ncccn3c2-c2ccc(SC)cc2)cc1
TGI [1]: > 100 µM
TGI [2]: 41 µM
TGI [3]: > 100 µM
TGI [4]: 3 µM
TGI [5]: > 100 µM
TGI [6]: 4.96 µM
TGI [7]: > 100 µM

COc1ccc2c(C(=O)c3cn(CCN4CCOCC4)c4ccccc34)cccc2c1
TGI [1]: > 100 µM
TGI [8]: > 80.2 µM
TGI [9]: > 100 µM
TGI [10]: > 100 µM
TGI [2]: > 100 µM
TGI [3]: > 100 µM
TGI [4]: > 54.8 µM
TGI [5]: > 100 µM
TGI [6]: > 100 µM
TGI [7]: > 100 µM

O=C(O)CCSC(CC1(c2ccc(Cl)cc2)NC(=O)CCS1)c1ccccc1 (configuration not stated)
TGI [1]: 50.1 µM
TGI [8]: > 55.3 µM
TGI [9]: 46.9 µM
TGI [10]: > 53.8 µM
TGI [2]: > 59.4 µM
TGI [3]: 33.4 µM
TGI [4]: 43.2 µM
TGI [5]: 29.3 µM
TGI [6]: 37.3 µM
TGI [7]: 37.3 µM

NCCc1cc(O)c(O)cc1O
GI50 [1]: 24.2 µM
TGI [1]: > 69.6 µM
TGI [8]: 44.4 µM
TGI [9]: 65.9 µM
TGI [10]: 32.4 µM
TGI [2]: 60.1 µM
TGI [3]: 39.4 µM
TGI [4]: 49.3 µM
GI50 [5]: 12.3 µM
TGI [5]: 25.6 µM
TGI [6]: 61.5 µM
TGI [7]: > 100 µM

O=P1(c2ccccc2)Nc2ccccc2SSc2ccccc2N1
TGI [1]: 32.7 µM
TGI [8]: 37.5 µM
TGI [9]: 33.4 µM
TGI [3]: 32.8 µM
TGI [4]: 30.3 µM
TGI [5]: 33.6 µM
TGI [6]: 32.4 µM

CSc1ccsc1-c1sc(-c2cc(SC)c(-c3sc(-c4cc(SC)c(-c5sccc5SC)s4)cc3SC)s2)cc1SC
TGI [1]: > 100 µM
TGI [8]: > 100 µM
TGI [9]: > 100 µM
TGI [10]: > 100 µM
TGI [2]: > 100 µM
TGI [3]: > 100 µM
TGI [4]: > 100 µM
TGI [5]: > 100 µM
TGI [6]: 34 µM
TGI [7]: > 100 µM

CN(C)CCCn1cnc2cc(Cl)c(Cl)cc21
TGI [1]: > 100 µM
TGI [8]: > 100 µM
TGI [9]: > 100 µM
TGI [10]: > 100 µM
TGI [2]: > 100 µM
TGI [3]: > 100 µM
TGI [4]: > 100 µM
TGI [5]: > 100 µM
TGI [6]: > 100 µM
TGI [7]: > 100 µM

CCCOC(=O)CNC(=O)OC(C)(C)C
TGI [1]: > 100 µM
TGI [9]: > 100 µM
TGI [2]: > 100 µM
TGI [4]: > 100 µM
TGI [5]: > 100 µM
TGI [6]: > 100 µM

COc1ccc(/C(Cl)=C(\C=O)c2ccc(OC)cc2)cc1
TGI [1]: > 100 µM
TGI [9]: > 100 µM
TGI [2]: > 100 µM
TGI [3]: > 100 µM
TGI [4]: > 100 µM
TGI [5]: > 100 µM
TGI [6]: > 100 µM

N=C1C(=N)c2ccccc2-c2ccccc21.N=C1C(=N)c2ccccc2-c2ccccc21.N=C1C(=N)c2ccccc2-c2ccccc21.[Cl-].[Ru+2]
TGI [1]: 4.93 µM
TGI [9]: 3.41 µM
TGI [2]: 3.29 µM
TGI [3]: 2.94 µM
TGI [4]: 3.23 µM
TGI [5]: 2.85 µM

COC(C)(C)OCCN1CCN(CCN2C3=C(C=C(C(C)=O)C3)Sc3ccccc32)CC1
TGI [1]: 73.5 µM
TGI [9]: > 100 µM
TGI [10]: 68.8 µM
TGI [2]: 35.5 µM
TGI [3]: 69.8 µM
TGI [4]: 36.7 µM
TGI [5]: > 100 µM
TGI [6]: 48.2 µM
TGI [7]: 72.9 µM

C=CCN(C(=O)CNC(=O)C(F)(F)F)c1cc(OCc2ccccc2)c2c(c1)c(C)cn2S(=O)(=O)c1ccccc1
TGI [1]: > 100 µM
TGI [8]: > 100 µM
TGI [9]: > 100 µM
TGI [10]: > 100 µM
TGI [2]: > 100 µM
TGI [3]: > 100 µM
TGI [4]: > 100 µM
TGI [5]: > 100 µM
TGI [6]: > 100 µM
TGI [7]: > 100 µM

CC(=O)NNc1nc(-c2ccc([N+](=O)[O-])cc2)c(C#N)c(=O)n1C
TGI [1]: > 100 µM
TGI [8]: 97.3 µM
TGI [9]: > 100 µM
TGI [10]: > 100 µM
TGI [2]: > 100 µM
TGI [3]: > 100 µM
TGI [4]: > 100 µM
TGI [5]: 52.7 µM
TGI [6]: > 100 µM
TGI [7]: > 100 µM

Cc1cc(/N=C/c2ccc(F)cc2)n(-c2ccccc2)n1
TGI [1]: > 100 µM
TGI [8]: > 100 µM
TGI [9]: > 100 µM
TGI [10]: > 100 µM
TGI [2]: > 100 µM
TGI [3]: > 100 µM
TGI [4]: > 100 µM
TGI [5]: > 100 µM
TGI [6]: > 100 µM
TGI [7]: > 100 µM

NCCCn1c2c(c3ccc([N+](=O)[O-])cc3c1=O)C(=O)c1ccccc1-2
GI50 [1]: 0.078 µM
TGI [1]: 2.42 µM
GI50 [8]: 0.0122 µM
TGI [8]: > 50 µM
GI50 [9]: 0.317 µM
TGI [9]: 1.69 µM
GI50 [10]: 0.0455 µM
TGI [10]: 0.474 µM
GI50 [2]: 0.0198 µM
TGI [2]: 0.0885 µM
GI50 [3]: 0.0297 µM
TGI [3]: 0.16 µM
GI50 [5]: 0.116 µM
TGI [5]: 0.47 µM
GI50 [6]: 0.0276 µM
TGI [6]: 0.494 µM
GI50 [7]: 0.326 µM
TGI [7]: 3.61 µM

Reference: PubChem BioAssay (NCI)
